# Patent US12116325B2, “Increased longevity of the nitrogen content of soil through improved liquid delivery formulations of nitrification inhibitors designed for urea and manure based fertilizers” (SOILGENIC TECHNOLOGIES, LLC, priority 2014, dated 2024)
# Assay: Degradation study of actives in DMSO at 50° C. by LC
# Assay type: physicochemical
# Protocol: A degradation study was performed using 2-chloro-6-(trichloromethyl)pyridine/nBPT in DMSO.
# A 2-chloro-6-(trichloromethyl)pyridine/NBPT=1/1(w/w) mixture was dissolved in DMSO. LC (liquid chromatography) was performed to analyze the content decrease versus time. All samples were sealed and protected under N2. All samples were stored 50° C.
# A C18 column was used, and measured at 255 nm. Retention time: 40 min.
# Temperature: 30° C. 15 μL injection. Peak area percentages were calculated to analyze the concentration and are shown in below Table 3.
smiles,measurement,setting,value
CCCCNP(N)(N)=S [n-butylthiophosphoric triamide],"Content remaining, LC peak area percentage","Week 1, 1/1 (w/w) mixture in DMSO, 50° C., sealed under N2",100%
same,"Content remaining, LC peak area percentage","Week 2, DMSO, 50° C.",99.6%
same,"Content remaining, LC peak area percentage","Week 3, DMSO, 50° C.",98%
same,"Content remaining, LC peak area percentage","Week 4, DMSO, 50° C.",97.6%
same,"Content remaining, LC peak area percentage","Week 6, DMSO, 50° C.",96.5%
same,"Content remaining, LC peak area percentage","Week 7, DMSO, 50° C.",95.3%
same,"Content remaining, LC peak area percentage","Week 8, DMSO, 50° C.",94.7%
same,"Content remaining, LC peak area percentage","Week 9, DMSO, 50° C.",93%
same,"Content remaining, LC peak area percentage","Week 10, DMSO, 50° C.",92.2%
same,"Content remaining, LC peak area percentage","Week 11, DMSO, 50° C.",92.1%
same,"Content remaining, LC peak area percentage","Week 12, DMSO, 50° C.",91.7%
same,"Content remaining, LC peak area percentage","Week 13, DMSO, 50° C.",91%
same,"Content remaining, LC peak area percentage","Week 14, DMSO, 50° C.",90.88%
same,"Content remaining, LC peak area percentage","Week 15, DMSO, 50° C.",90.01%
same,"Content remaining, LC peak area percentage","Week 16, DMSO, 50° C.",99.55%
same,"Content remaining, LC peak area percentage","Week 17, DMSO, 50° C.",89.06%
same,"Content remaining, LC peak area percentage","Week 18, DMSO, 50° C.",88.6%
Clc1cccc(C(Cl)(Cl)Cl)n1 [2-chloro-6-(trichloromethyl)pyridine],"Content remaining, LC peak area percentage",1 week,100%
same,"Content remaining, LC peak area percentage",2 week,99%
same,"Content remaining, LC peak area percentage",3 week,99.4%
same,"Content remaining, LC peak area percentage",4 week,98.3%
same,"Content remaining, LC peak area percentage",6 week,95.3%
same,"Content remaining, LC peak area percentage",7 week,93.2%
same,"Content remaining, LC peak area percentage",8 week,92.3%
same,"Content remaining, LC peak area percentage",9 week,90.8%
same,"Content remaining, LC peak area percentage",10 week,88%
same,"Content remaining, LC peak area percentage",11 week,86.7%
same,"Content remaining, LC peak area percentage",12 week,86.4%
same,"Content remaining, LC peak area percentage",13 week,85%
same,"Content remaining, LC peak area percentage",14 week,84.33%
same,"Content remaining, LC peak area percentage",15 week,83.56%
same,"Content remaining, LC peak area percentage",16 week,81.45%
same,"Content remaining, LC peak area percentage",17 week,81%
same,"Content remaining, LC peak area percentage",18 week,80.09%
